Assay results published in patent US20120264685A1 (priority 2009, published 2012).
Where a SMILES comes first, the peptide text is derived from it. [ ]: non-standard residue; d: D form. ξ: configuration not given here. ξαMeBip(2'-Et,4'-OMe) = CCc1cc(OC)ccc1-c1ccc(CC(C)(N)C(=O)O)cc1; ξαMePhe(2,6-F2) = CC(N)(Cc1c(F)cccc1F)C(=O)O; ξαMe(hhPhe) = CC(N)(CCCc1ccccc1)C(=O)O; ξαMePhe(2-F) = CC(N)(Cc1ccccc1F)C(=O)O; ξhhPhe = NC(CCCc1ccccc1)C(=O)O; ξαMeD = CC(N)(CC(=O)O)C(=O)O; ξαMeP = CC1(C(=O)O)CCCN1; ξαMeS = CC(N)(CO)C(=O)O; Aib = CC(C)(N)C(=O)O

Assays:
[1] = system: RIN5F (Rat Insulinoma) cells; assay: In vitro glucose-dependent insulin secretion (RIN5F cell assay); format: cell-based; details: 16.7-mM glucose load, n = 3, mean ± S.D.
Method in brief: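 Rat RIN5F cells were preincubated 40 min in Krebs-Ringer buffer with 1.1 mM glucose and 0.5% BSA, pH 7.4, then exposed to test peptidomimetics for 30 min at 37 °C with 16.7 mM or 0 mM glucose. Supernatant insulin was measured by rat insulin ELISA and normalised to total protein (BCA), as pg/μg.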

DPP IV enzyme = DPP IV enzyme (Homo sapiens, UniProt P27487); assay: Stability against DPP IV enzyme; format: in vitro ADME; details: 2 μM, 37° C.; for half-life: read-out: half-life (t1/2) with DPP-IV enzyme
Chain of DPP IV enzyme (P27487 whole entry, species assumed, the tested form may be a part): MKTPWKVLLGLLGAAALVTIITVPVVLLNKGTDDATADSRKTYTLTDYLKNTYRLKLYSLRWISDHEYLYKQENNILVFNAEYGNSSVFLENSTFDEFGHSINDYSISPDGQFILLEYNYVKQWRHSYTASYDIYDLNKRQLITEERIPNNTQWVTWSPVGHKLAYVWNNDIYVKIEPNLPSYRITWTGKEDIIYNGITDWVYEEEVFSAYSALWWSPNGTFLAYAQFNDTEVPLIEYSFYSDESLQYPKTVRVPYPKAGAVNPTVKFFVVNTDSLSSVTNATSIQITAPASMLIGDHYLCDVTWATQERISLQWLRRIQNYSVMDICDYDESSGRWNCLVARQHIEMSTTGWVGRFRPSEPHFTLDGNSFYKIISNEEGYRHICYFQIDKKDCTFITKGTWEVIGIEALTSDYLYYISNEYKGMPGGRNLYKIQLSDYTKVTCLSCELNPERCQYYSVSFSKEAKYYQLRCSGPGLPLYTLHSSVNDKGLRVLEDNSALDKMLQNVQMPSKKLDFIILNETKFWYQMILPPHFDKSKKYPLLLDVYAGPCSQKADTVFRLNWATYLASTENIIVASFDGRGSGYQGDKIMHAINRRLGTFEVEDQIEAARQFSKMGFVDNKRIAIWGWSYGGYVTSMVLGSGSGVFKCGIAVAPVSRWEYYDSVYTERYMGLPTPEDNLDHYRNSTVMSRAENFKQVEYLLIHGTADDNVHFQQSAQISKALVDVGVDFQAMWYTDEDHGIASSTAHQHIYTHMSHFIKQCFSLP
Protocol: (§1) Different peptidomimetics (final concentration 2 μM) were incubated with either DPP IV (1:25 mU) or pooled human plasma (7.5 μL) or simulated gastric fluid (pH 1.5; composition HCl, NaCl and Pepsin) or simulated intestinal fluid (pH 7.5) or human liver microsomes, for 0, 2, 4, 6, 12 and 24 h (37° C.; 50 mM triethanolamine-HCl buffer; pH 7.8). […] Reactions were terminated by the addition of TFA/H2O ([…], 10% (v/v)). The reaction products were then applied to a Vydac C18 analytical column (4.6×250-mm) and the major degradation fragment separated from intact peptidomimetic. The column was equilibrated with TFA/H20, at a flow rate of 1 mL/min. Using 0.1% (v/v) TFA in 70% acetonitrile/H2O, the concentration of acetonitrile in the eluting solvent was raised from 0% to 28% over 10 min and from 28% to 42% over 30 min. The absorbance was monitored at 206 nm using UV detector and peaks were collected manually prior to ESI-MS analysis. Area under the curve was measured for test peptidomimetics and their metabolites and percentage degradation were calculated at each time point over a period of 24 h.

[2] = Stability in human plasma; format: in vitro ADME; details: 2 μM, 37° C.; for half-life: human, plasma, read-out: half-life (t1/2) in human plasma
Protocol: as §1

[3] = Stability in simulated gastric fluid; format: in vitro ADME; details: 2 μM, 37° C.; for half-life (t1/2) in simulated gastric fluid / half-life: pH 1.5; for % degradation in 24 h when incubated with simulated gastric fluid: pH 1.5, 24 h; for half-life: simulated gi fluid, read-out: half-life (t1/2) in simulated gastric fluid
Protocol: (§2) Reactions were terminated by the addition of TFA/H2O ([…], 10% (v/v)). […] The column was equilibrated with TFA/H20, at a flow rate of 1 mL/min. […] The absorbance was monitored at 206 nm using UV detector and peaks were collected manually prior to ESI-MS analysis.

[4] = Stability in simulated intestinal fluid; format: in vitro ADME; details: 2 μM, 37° C.; for half-life (t1/2) in simulated intestinal fluid / half-life: pH 7.5; for % degradation in 24 h when incubated with simulated intestinal fluid: pH 7.5, 24 h; for half-life: simulated gi fluid, read-out: half-life (t1/2) in simulated intestinal fluid
Protocol: as §2

[5] = Stability in liver microsomes; format: in vitro ADME, human; details: 2 μM, 37° C.; for half-life: human, microsomes, read-out: half-life (t1/2) in liver microsomes
Protocol: as §2

SMILES	Insulin secretion ([1]; 0.1 nM test compd.) [pg/µg/h]	Insulin secretion ([1]; 1 nM test compd.) [pg/µg/h]	Insulin secretion ([1]; 10 nM test compd.) [pg/µg/h]	% degradation in 24 h when incubated with DPP-IV enzyme (DPP IV enzyme) [%]	half-life (DPP IV enzyme) [h]	% degradation in 24 h when incubated with human plasma [2] [%]	half-life [2] [h]	half-life (t1/2) in simulated gastric fluid [3]	% degradation in 24 h when incubated with simulated gastric fluid [3] [%]	half-life (t1/2) in simulated intestinal fluid [4]	% degradation in 24 h when incubated with simulated intestinal fluid [4] [%]	% degradation in 24 h when incubated with liver microsomes [5] [%]	half-life [5] [h]	half-life (t1/2) in human plasma [2]	half-life [3] [h]	half-life [4] [h]	half-life (t1/2) in liver microsomes [5]
CCc1cc(OC)ccc1-c1ccc(CC(C)(NC(=O)[C@H](CC(=O)O)NC(=O)[C@H](CO)NC(=O)[C@@H](NC(=O)C(C)(Cc2c(F)cccc2F)NC(=O)[C@@H](NC(=O)CNC(=O)[C@H](CCC(=O)O)NC(=O)C(C)(C)NC(=O)[C@H](Cc2c[nH]cn2)NC(=O)[C@@H](N)C(C)C)[C@@H](C)O)[C@@H](C)O)C(=O)NC(CCCc2ccccc2)C(N)=O)cc1 (stereo partly drawn) [compound 31] (H-VH[Aib]EGT[ξαMePhe(2,6-F2)]TSD[ξαMeBip(2'-Et,4'-OMe)][ξhhPhe]-NH2)	12.7 ± 0.21	15.8 ± 0.33	29.3 ± 0.19	86	9	70	8	(8) h	15	(6) h	41	77	1				
CCc1cc(OC)ccc1-c1ccc(CC(C)(NC(=O)[C@H](CC(=O)O)NC(=O)[C@H](CO)NC(=O)[C@@H](NC(=O)[C@H](Cc2ccccc2)NC(=O)[C@@H](NC(=O)CNC(=O)[C@H](CCC(=O)O)NC(=O)C2(C)CCCN2C(=O)[C@H](Cc2c[nH]cn2)NC(=O)[C@@H](N)C(C)C)[C@@H](C)O)[C@@H](C)O)C(=O)NC(C)(CCCc2ccccc2)C(N)=O)cc1 (stereo partly drawn) [compound 140] (H-VH[ξαMeP]EGTFTSD[ξαMeBip(2'-Et,4'-OMe)][ξαMe(hhPhe)]-NH2)	16.6 ± 0.41	22.9 ± 0.32	36.7 ± 0.11	86		70			100		100	100	0.5	(9) h	0.5	0.5	
CCc1cc(OC)ccc1-c1ccc(CC(C)(NC(=O)[C@H](CC(=O)O)NC(=O)[C@H](CO)NC(=O)[C@@H](NC(=O)C(C)(Cc2c(F)cccc2F)NC(=O)[C@@H](NC(=O)CNC(=O)[C@H](CCC(N)=O)NC(=O)C2(C)CCCN2C(=O)[C@H](Cc2c[nH]cn2)NC(=O)[C@@H](N)C(C)C)[C@@H](C)O)[C@@H](C)O)C(=O)NC(CCCc2ccccc2)C(N)=O)cc1 (stereo partly drawn) [compound 28] (H-VH[ξαMeP]QGT[ξαMePhe(2,6-F2)]TSD[ξαMeBip(2'-Et,4'-OMe)][ξhhPhe]-NH2)	11.8 ± 0.50	14.9 ± 0.11	27.9 ± 0.31	70	9	71	8	(8) h	14	(6) h	40	78	1				
CCc1cc(OC)ccc1-c1ccc(CC(C)(NC(=O)C(C)(CC(=O)O)NC(=O)[C@H](CO)NC(=O)[C@@H](NC(=O)[C@H](Cc2ccccc2)NC(=O)[C@@H](NC(=O)CNC(=O)[C@H](CCC(=O)O)NC(=O)[C@H](C)NC(=O)[C@H](Cc2c[nH]cn2)NC(=O)[C@@H](N)C(C)C)[C@@H](C)O)[C@@H](C)O)C(=O)NC(CCCc2ccccc2)C(N)=O)cc1 (stereo partly drawn) [compound 62] (H-VHAEGTFTS[ξαMeD][ξαMeBip(2'-Et,4'-OMe)][ξhhPhe]-NH2)	16.6 ± 0.41	22.9 ± 0.32	36.7 ± 0.11	00	> 24	00	> 24		00		00	35			> 24	> 24	(5) h
CCc1cc(OC)ccc1-c1ccc(CC(C)(NC(=O)[C@H](CC(=O)O)NC(=O)C(C)(CO)NC(=O)[C@@H](NC(=O)C(C)(Cc2c(F)cccc2F)NC(=O)[C@@H](NC(=O)CNC(=O)[C@H](CCC(=O)O)NC(=O)[C@H](C)NC(=O)[C@H](Cc2c[nH]cn2)NC(=O)[C@@H](N)C(C)C)[C@@H](C)O)[C@@H](C)O)C(=O)NC(C)(CCCc2ccccc2)C(N)=O)cc1 (stereo partly drawn) [compound 178] (H-VHAEGT[ξαMePhe(2,6-F2)]T[ξαMeS]D[ξαMeBip(2'-Et,4'-OMe)][ξαMe(hhPhe)]-NH2)	17.1 ± 0.11	23.1 ± 0.16	37.0 ± 0.29	00	> 24	00	> 24		43		00	84	2		4	> 24	
CCc1cc(OC)ccc1-c1ccc(CC(C)(NC(=O)C(C)(CC(=O)O)NC(=O)[C@H](CO)NC(=O)[C@@H](NC(=O)C(C)(Cc2ccccc2F)NC(=O)[C@@H](NC(=O)CNC(=O)[C@H](CCC(=O)O)NC(=O)[C@H](CO)NC(=O)[C@H](Cc2c[nH]cn2)NC(=O)[C@@H](N)C(C)C)[C@@H](C)O)[C@@H](C)O)C(=O)NC(CCCc2ccccc2)C(N)=O)cc1 (stereo partly drawn) [compound 69] (H-VHSEGT[ξαMePhe(2-F)]TS[ξαMeD][ξαMeBip(2'-Et,4'-OMe)][ξhhPhe]-NH2)	16.2 ± 0.13	22.4 ± 0.19	36.2 ± 0.09	76	9	78	8	(8) h	14	(6) h	43	80	1				
CCc1cc(OC)ccc1-c1ccc(CC(C)(NC(=O)C(C)(CC(=O)O)NC(=O)[C@H](CO)NC(=O)[C@@H](NC(=O)[C@H](Cc2ccccc2)NC(=O)[C@@H](NC(=O)CNC(=O)[C@H](CCC(=O)O)NC(=O)C2(C)CCCN2C(=O)[C@H](Cc2c[nH]cn2)NC(=O)[C@@H](N)C(C)C)[C@@H](C)O)[C@@H](C)O)C(=O)NC(C)(CCCc2ccccc2)C(N)=O)cc1 (stereo partly drawn) [compound 188] (H-VH[ξαMeP]EGTFTS[ξαMeD][ξαMeBip(2'-Et,4'-OMe)][ξαMe(hhPhe)]-NH2)	12.9 ± 0.14	15.8 ± 0.13	29.9 ± 0.15	00	> 24	00	> 24		41		00	80	2		4	> 24	
